Some test systems named below: OVCAR-8; SF-539; SF-295; COLO 205; SNB-19; HCC 2998; TK-10; SK-OV-3; KM12; CAKI-1; K562; MOLT-4; PC-3; SK-MEL-28; A549; M14; SF-268; HCT-116; NCI-H226; RPMI-8226.
What all share (experiment): NCI tumour cell line growth inhibition, 48 h

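1) Cells in 96-well plates. 2) Compound, 48 h, 5 concentrations. 3) Linear interpolation between surrounding doses. 4) Unreached endpoint = highest concentration. GI50 = concentration required for 50% inhibition of growth.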 Calls of active or inactive are those of the source. Rule as the data show it: active = GI50 up to about 1.1 µM and inactive = higher. Bounds are passed on as bounds.

As for `CC(C)(C)OC(=O)Cn1ncn(NC(=O)Cc2ccccc2)c1=S`, the GI50 in the test with OVCAR-8, in the test on SF-539, in the test on SF-295, with COLO 205, in the test on SNB-19 and in the test on HCC 2998 was > 10 µM (inactive) in each case. The GI50 with TK-10, in the test on SK-OV-3, in the test with KM12, in the test with CAKI-1, in the test with K562 and with MOLT-4 was > 10 µM (inactive) each time. Moreover, the GI50 with PC-3, with SK-MEL-28, with A549, in the test on M14, with SF-268 and with HCT-116 was > 10 µM (inactive) throughout.
In the case of `COc1ccc(C2NC(=O)Nc3c2c(=O)oc2c3ccc3ccccc32)cc1` (stereo unspecified), the GI50 with OVCAR-8 was 66.8 µM (inactive); in the test with SF-539, 83 µM (inactive); with SF-295 it was 51.4 µM (inactive); in the test on COLO 205 it was > 100 µM (inactive); in the test on SNB-19, 33.2 µM (inactive); in the test on TK-10, 74.3 µM (inactive). In addition, the GI50 in the test with SK-OV-3 is > 100 µM (inactive); in the test with KM12 it was 57 µM (inactive); with CAKI-1, 52.8 µM (inactive); in the test on K562 it was 48.1 µM (inactive); with MOLT-4, 62.8 µM (inactive); with PC-3 it was 38.2 µM (inactive). For the same compound, the GI50 with SK-MEL-28 was 55.5 µM (inactive); in the test on NCI-H226, 23.4 µM (inactive); with RPMI-8226, 43.3 µM (inactive); in the test on A549 it was 48.4 µM (inactive); with M14, 37.6 µM (inactive); in the test on SF-268 it was 56.4 µM (inactive). In addition, in the test on HCT-116, the GI50 is 75.9 µM (inactive).
In the case of `CC(C)CCC1(CCN)C(=O)NC(=O)NC1=O`, the GI50 with OVCAR-8, in the test on SF-539, in the test with SF-295, in the test with COLO 205, in the test on SNB-19 and in the test on TK-10 was > 100 µM (inactive) in each case. In addition, the GI50 in the test with SK-OV-3 was > 100 µM (inactive); with KM12, > 100 µM (inactive); in the test with CAKI-1, > 100 µM (inactive); in the test on K562, 16.3 µM (inactive); in the test on MOLT-4, 16.2 µM (inactive); in the test with PC-3, > 100 µM (inactive). Further, the GI50 with SK-MEL-28, with NCI-H226, in the test with RPMI-8226, with A549, in the test with M14 and with SF-268 was > 100 µM (inactive) in each case. Also, in the test with HCT-116, the GI50 is > 100 µM (inactive).
`COc1cccc2c1[C@H](OC)[C@]13O[C@@]1(C2=O)[C@H](O)[C@H](C)[C@@](O)(C(=O)[C@@H]1O[C@H]1C)[C@@H]3O`: the GI50 in the test on OVCAR-8 was 0.217 µM (active); in the test with SF-295 it was 0.218 µM (active); in the test with COLO 205, 0.165 µM (active); in the test on TK-10, 0.318 µM (active); in the test on SK-OV-3, 0.21 µM (active); in the test on KM12, 0.318 µM (active). Besides, the GI50 was 0.259 µM (active) in the test with K562; 0.299 µM (active) in the test with MOLT-4; 0.266 µM (active) in the test on PC-3; 0.23 µM (active) in the test on SK-MEL-28; 0.335 µM (active) with NCI-H226; 0.172 µM (active) with RPMI-8226. For the same compound, the GI50 is 0.199 µM (active) in the test with A549 and 0.246 µM (active) in the test with SF-268.
As for `CC1(C)C(CC(=O)O)CCCC1CC(=O)O` (stereo unspecified), the GI50 in the test on OVCAR-8, with SF-295, in the test with COLO 205, in the test with SNB-19, with TK-10 and in the test with SK-OV-3 was > 100 µM (inactive) throughout. Moreover, the GI50 in the test on KM12, in the test with CAKI-1, in the test on K562, in the test on MOLT-4, with PC-3 and in the test on SK-MEL-28 was > 100 µM (inactive) in each case. For the same compound, the GI50 was 55.5 µM (inactive) in the test on NCI-H226; > 100 µM (inactive) in the test with RPMI-8226; > 100 µM (inactive) with A549; > 100 µM (inactive) in the test with M14; > 100 µM (inactive) in the test with HCT-116.
In the case of `COc1ccc(C[N+]23C(CC[C@H]2c2ccccc2)CC[C@H]3c2ccccc2)cc1` (stereo partly specified), the GI50 in the test on OVCAR-8 is 22.9 µM (inactive); with SF-295, 26.1 µM (inactive); with COLO 205, 5.26 µM (inactive); in the test with SNB-19, 27.2 µM (inactive); in the test on TK-10, 44.9 µM (inactive); in the test on SK-OV-3 it was 29.5 µM (inactive). In addition, the GI50 in the test with KM12 was 10.4 µM (inactive); in the test with CAKI-1, 75.5 µM (inactive); with K562, 6.46 µM (inactive); in the test on MOLT-4 it was 21.6 µM (inactive); in the test on PC-3, 20 µM (inactive); in the test on SK-MEL-28, 20.3 µM (inactive). For the same compound, the GI50 with NCI-H226 was 14.1 µM (inactive); in the test with RPMI-8226, 2.8 µM (inactive); with A549 it was 31.3 µM (inactive); with M14, 12.9 µM (inactive); in the test with SF-268 it was 30.3 µM (inactive); in the test on HCT-116, 24.5 µM (inactive).
With `COc1cccc(N2C(=O)CS(=O)(=O)C2c2cccc(Oc3ccccc3)c2)c1` (stereo unspecified), the GI50 in the test on OVCAR-8 was 21.6 µM (inactive); in the test on SF-539 it was 15.1 µM (inactive); with SF-295 it was 16 µM (inactive); in the test on COLO 205 it was 6 µM (inactive); with SNB-19 it was 27.1 µM (inactive); with TK-10, 16.5 µM (inactive). For the same compound, the GI50 in the test with SK-OV-3 is 38 µM (inactive); with KM12, 7.67 µM (inactive); in the test on CAKI-1 it was 26.1 µM (inactive); with K562 it was 3.6 µM (inactive); with MOLT-4 it was 21.3 µM (inactive); in the test on PC-3, 9.98 µM (inactive). Further, the GI50 with SK-MEL-28 is 34 µM (inactive); in the test with NCI-H226, 19.1 µM (inactive); in the test on A549, 26.7 µM (inactive); in the test with M14 it was 15.4 µM (inactive); in the test on SF-268 it was 24.4 µM (inactive); in the test with HCT-116, 11.1 µM (inactive).
For the compound `Cc1cn(Cc2ccccc2CCl)c(=O)[nH]c1=O`, the GI50 in the test on OVCAR-8 is 12.1 µM (inactive); with SF-539 it was 5.56 µM (inactive); in the test on SF-295, 13.8 µM (inactive); in the test with COLO 205, 17.1 µM (inactive); in the test with SNB-19 it was 12.3 µM (inactive); in the test with HCC 2998, 15.3 µM (inactive). The GI50 in the test on TK-10 is 15.3 µM (inactive); with SK-OV-3, 26.4 µM (inactive); in the test on KM12 it was 12.9 µM (inactive); in the test with CAKI-1, 10.4 µM (inactive); in the test with K562, 4.72 µM (inactive); with MOLT-4, 3.15 µM (inactive). The GI50 in the test on PC-3 was 16 µM (inactive); with SK-MEL-28, 19.4 µM (inactive); in the test on A549 it was 16.9 µM (inactive); in the test with M14 it was 12.9 µM (inactive); in the test with SF-268, 13 µM (inactive); in the test with HCT-116, 4.53 µM (inactive).
For the compound `CCOC(=O)C1=C(C)NC(=O)NC1c1coc2cc(C)cc(C)c2c1=O` (stereo unspecified), the GI50 with OVCAR-8 is 64.1 µM (inactive); in the test on SF-539, 75.9 µM (inactive); with SF-295, 47.6 µM (inactive); in the test on COLO 205, 54.6 µM (inactive); in the test on SNB-19, 90.2 µM (inactive); in the test with TK-10, 38.9 µM (inactive). Besides, the GI50 in the test with SK-OV-3 was > 66.5 µM (inactive); in the test with KM12 it was 30 µM (inactive); with CAKI-1, > 100 µM (inactive); in the test with K562, 30.7 µM (inactive); in the test with MOLT-4, 27.5 µM (inactive); in the test with PC-3, 48.3 µM (inactive). Besides, the GI50 in the test on SK-MEL-28 was > 100 µM (inactive); in the test on NCI-H226 it was > 100 µM (inactive); in the test on RPMI-8226, 41.7 µM (inactive); in the test on A549 it was 46.9 µM (inactive); in the test on M14 it was 34.7 µM (inactive); with SF-268, 57.5 µM (inactive). Also, the GI50 in the test with HCT-116 is 36.9 µM (inactive).
In the case of `O=C(O)CCNCC(=O)O`, the GI50 in the test with OVCAR-8, in the test on SF-539, with SF-295, in the test on COLO 205, with SNB-19 and with TK-10 was > 100 µM (inactive) in each case. The GI50 with SK-OV-3, in the test with KM12, with CAKI-1, in the test with K562, in the test with MOLT-4 and with PC-3 was > 100 µM (inactive) throughout. In addition, the GI50 with SK-MEL-28, in the test with NCI-H226, in the test on RPMI-8226, with A549, in the test on M14 and in the test with SF-268 was > 100 µM (inactive) throughout. In addition, in the test with HCT-116, the GI50 was > 100 µM (inactive).
As for `O=C(O)[C@H](Cc1ccccc1)NCCN1CCC[C@H]1C(=O)O`, the GI50 is > 100 µM (inactive) in the test on OVCAR-8; > 100 µM (inactive) with SF-539; > 100 µM (inactive) in the test with SF-295; 37.6 µM (inactive) with COLO 205; > 100 µM (inactive) with SNB-19; > 100 µM (inactive) in the test with SK-OV-3. For the same compound, the GI50 was > 100 µM (inactive) in the test with KM12; > 100 µM (inactive) in the test with CAKI-1; 1.53 µM (inactive) with K562; 99.8 µM (inactive) in the test with MOLT-4; > 100 µM (inactive) with PC-3; > 100 µM (inactive) in the test with SK-MEL-28. In addition, the GI50 with RPMI-8226, in the test with A549, in the test on M14, in the test on SF-268 and in the test on HCT-116 was > 100 µM (inactive) each time.
